In the supplement of paper PMC10307832:

Tests used:
Assay in all cases: relative viability (nuclei count vs DMSO), 5 days (fraction); higher = more cells survive
[1] = compound: C1=CC=C2C(=C1)N=C(S2)C(C#N)C3=NC(=NC=C3)NCCC4=CN=CC=C4 + CC(=O)c1c(C)c2cnc(Nc3ccc(N4CCNCC4)cn3)nc2n(C2CCCC2)c1=O [Palbociclib] (partner 0.5 µM)
How it was run: (§1)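 One day after seeding in 1536-well plates, lung cancer cell lines were dosed by pin tool. Dosing was either single-drug or a fixed anchor-drug dose plus five library-drug doses (not always all listed) in √10 steps. After 5 days, nuclei were stained in one fix-and-stain step and counted on 4× images, and relative viability is the nuclei count of treated wells over that of vehicle wells, given as the median of duplicate plates.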

[2] = compound: C1=CC=C2C(=C1)N=C(S2)C(C#N)C3=NC(=NC=C3)NCCC4=CN=CC=C4 + CS(=O)(=O)N1CCN(Cc2cc3nc(-c4cccc5[nH]ncc45)nc(N4CCOCC4)c3s2)CC1 [Pictilisib] (partner 1 µM)
How it was run: as §1

Vandetanib + Palbociclib = compound: COc1cc2/c(=N/c3ccc(Br)cc3F)nc[nH]c2cc1OCC1CCN(C)CC1 [Vandetanib] + CC(=O)c1c(C)c2cnc(Nc3ccc(N4CCNCC4)cn3)nc2n(C2CCCC2)c1=O [Palbociclib] (partner 0.5 µM)
How it was run: as §1

Vandetanib + Bortezomib = compound: COc1cc2/c(=N/c3ccc(Br)cc3F)nc[nH]c2cc1OCC1CCN(C)CC1 [Vandetanib] + CC(C)C[C@H](NC(=O)[C@H](Cc1ccccc1)NC(=O)c1cnccn1)B(O)O [Bortezomib] (partner 0.002 µM)
How it was run: as §1

Cell Line	relative viability ([1]; first compound 0.005 µM)	relative viability ([1]; first compound 0.01581 µM)	relative viability ([1]; first compound 0.05 µM)	relative viability ([1]; first compound 0.1581 µM)	relative viability ([1]; first compound 0.5 µM)	relative viability ([2]; first compound 0.005 µM)	relative viability ([2]; first compound 0.01581 µM)	relative viability ([2]; first compound 0.05 µM)	relative viability ([2]; first compound 0.1581 µM)	relative viability ([2]; first compound 0.5 µM)	relative viability (Vandetanib + Palbociclib; first compound 0.02 µM)	relative viability (Vandetanib + Palbociclib; first compound 0.06325 µM)	relative viability (Vandetanib + Palbociclib; first compound 0.2 µM)	relative viability (Vandetanib + Palbociclib; first compound 0.6325 µM)	relative viability (Vandetanib + Palbociclib; first compound 2 µM)	relative viability (Vandetanib + Bortezomib; first compound 0.02 µM)	relative viability (Vandetanib + Bortezomib; first compound 0.06325 µM)	relative viability (Vandetanib + Bortezomib; first compound 0.2 µM)	relative viability (Vandetanib + Bortezomib; first compound 0.6325 µM)	relative viability (Vandetanib + Bortezomib; first compound 2 µM)
201T	0.292	0.354	0.354	0.383	0.325	0.7	0.69	0.621	0.662	0.698	0.35	0.353	0.332	0.314	0.335	1.03	1.08	1.13	1.03	1.06
A549						0.379	0.487	0.414	0.62	0.496										
A-427	0.542	0.5	0.519	0.525	0.56	0.723	0.664	0.726	0.844	0.878	0.508	0.497	0.485	0.531	0.503	0.887	0.99	1.04	1.02	0.961
ABC-1	0.525		0.597	0.554	0.451	0.84	0.605	0.758	0.87	0.725	0.91	0.541	0.693	0.708	0.643	0.304	0.3	0.287	0.406	0.244
BEN	0.417	0.472	0.473	0.473	0.444	0.59	0.509	0.584	0.576	0.561	0.458	0.46	0.443	0.479	0.448	0.875	0.714	0.83	0.919	0.861
CAL-12T	0.422	0.327	0.429	0.673	0.41	0.607			0.551	0.375	0.562	0.474	0.482	0.22	0.172	1.03	1.13	0.865	0.82	0.537
COR-L23	0.236	0.312	0.229	0.281	0.24	0.531	0.792	0.725	0.952	0.762	0.345	0.27	0.294	0.318	0.268	0.869	0.814	0.925	0.999	0.994
COR-L 105	0.376	0.408	0.435	0.39	0.345	0.345	0.367	0.384	0.516	0.428	0.388	0.442	0.392	0.38	0.39	0.827	0.661	0.851	0.474	0.388
Calu-6						0.74	0.885	0.938	0.932	0.806						1.15	0.933	1.09	0.959	0.941
ChaGo-K-1	0.731	0.979	0.903	1.01	0.911	0.655		0.445	0.953	0.662	0.921	0.881	0.19	0.887	0.927	1.11	0.985	0.593	0.887	0.567
EBC-1						0.398	0.363	0.352	0.368	0.275						0.635	0.559	0.647	0.577	0.505
EKVX	0.294	0.367	0.41	0.531	0.285	0.497	0.422	0.45	0.479	0.457	0.415	0.396	0.345	0.291	0.176	1.09	0.998	1.03	0.796	0.666
EMC-BAC-2	0.461	0.533	0.487	0.555	0.486	0.492	0.512	0.484	0.572	0.501	0.533	0.499	0.546	0.515	0.502	1.02	1.04	1.01	1.03	1.04
EPLC-272H	0.358	0.32	0.317	0.284	0.304	0.271	0.277	0.288	0.352	0.267	0.329	0.321	0.329	0.282	0.311	0.983	0.764	0.892	0.995	0.909
H3255	0.367	0.309	0.303	0.327	0.305	0.493	0.449	0.47	0.553	0.535	0.316	0.311	0.32	0.298	0.245	0.972	0.71	0.632	0.367	0.233
HARA	0.298	0.235	0.229	0.257	0.365	0.324	0.349	0.368	0.611	0.298	0.261	0.224	0.225	0.293	0.221	1.17	1.07	0.937	1.07	1.05
HCC-15	0.701	0.771	0.734	0.74	0.627	0.733	0.74	0.72	0.855	0.685	0.647	0.713	0.646	0.75	0.721	1.03	0.962	0.956	1.08	1.08
HCC-44	0.957	0.958	0.964	0.967	0.835	0.445	0.509	0.595	0.856	0.593	0.91	0.914	0.967	0.979	0.961	0.866	0.884	0.951	0.958	0.89
